# Measurements as given in patent publication US10494332B2, “Protein tyrosine phosphatases or SHP2 inhibitors and uses thereof” (Indiana University Research and Technology Corporation, priority 2015, dated 2019).
# Several values for one entry are separate records, joined by “and”; a condition that tells them apart may be missing. Equal values may be shown once. Entries after “also recorded” stand apart in the source; their conditions may differ. Read-outs that look alike come from different tables or passages of the source.
# Legend:
# PTPμ = PTPμ (Homo sapiens, UniProt P28827); experiment: biochemical
# PP5 = target: T1, PP5 (Homo sapiens, UniProt P53041); experiment: biochemical
# T1 sequence (P53041 1-499): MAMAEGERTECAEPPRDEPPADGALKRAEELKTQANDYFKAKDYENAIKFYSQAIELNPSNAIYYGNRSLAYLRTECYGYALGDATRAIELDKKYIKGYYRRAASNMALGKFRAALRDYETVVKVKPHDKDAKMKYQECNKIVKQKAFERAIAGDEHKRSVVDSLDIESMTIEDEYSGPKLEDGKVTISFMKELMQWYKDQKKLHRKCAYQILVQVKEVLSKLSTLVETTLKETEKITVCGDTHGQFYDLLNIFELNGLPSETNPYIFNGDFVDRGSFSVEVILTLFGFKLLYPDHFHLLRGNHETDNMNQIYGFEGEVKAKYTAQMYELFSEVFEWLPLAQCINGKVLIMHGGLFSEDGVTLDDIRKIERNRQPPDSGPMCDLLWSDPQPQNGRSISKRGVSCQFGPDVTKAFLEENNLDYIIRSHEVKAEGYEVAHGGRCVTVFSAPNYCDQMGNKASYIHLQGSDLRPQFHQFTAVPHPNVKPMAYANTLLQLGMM
# SHP2/E508A = SHP2/E508A (Homo sapiens, UniProt Q06124, E508A); experiment: SHP2 mutant inhibition assay (pNPP); type: biochemical; settings: pH 7.0
# SHP2 [1] = target: T2, SHP2 (Homo sapiens, UniProt Q06124); experiment: SHP2 phosphatase inhibition assay (pNPP); type: biochemical; settings: for Mode of SHP2 inhibition: with respect to pNPP
# T2 sequence (Q06124 224-528): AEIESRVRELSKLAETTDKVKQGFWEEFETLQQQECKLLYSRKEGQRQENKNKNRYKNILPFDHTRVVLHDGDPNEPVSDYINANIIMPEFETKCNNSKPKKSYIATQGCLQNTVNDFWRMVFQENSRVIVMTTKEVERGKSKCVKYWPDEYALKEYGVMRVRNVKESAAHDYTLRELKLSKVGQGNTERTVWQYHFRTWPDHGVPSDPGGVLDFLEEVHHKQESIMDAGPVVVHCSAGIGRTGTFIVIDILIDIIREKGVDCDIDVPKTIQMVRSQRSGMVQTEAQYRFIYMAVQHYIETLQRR
# [2] = Stability in buffer solutions by LC-MS; type: physicochemical
# Procedure: (§1) Agilent Technologies 6130 quadrupole LC-MS instrument was used for the LC-MS studies. A C18 reserved phase column (phenomenex, 50×4.6 mm) was used as stationary phase, water and methanol (both containing 0.1% formic acid) were used as mobile phase (gradient: 0-100% methanol, flow 0.8 mL/min, run time 15 minutes), and UV absorbance at the fixed wavelength of 254 nm and positive and negative ESI-MS data were recorded. The sample was adjusted to have a concentration at 0.1 mg/mL, and the injection volume of each sample was 0.2 μL. The retention time and corresponding ESI-MS data were used as identity of molecules.
# SHP2 [3] = target: SHP2 (Homo sapiens, UniProt Q06124); experiment: Covalent modification of SHP2 by QTOF ESI-MS / LC-MS; settings: 100 μM compound; cefsulodin three hours, phenyl vinyl sulfone 10 minutes
# Procedure: Agilent 6520 Accurate-Mass was used for the Q-TOF ESI-MS studies. Water and acetonitrile (both containing 0.1% formic acid) were used as eluent (80% water, flow 50 μL/min, run time 5 minutes). ESI positive mode was used with mass range from 300 to 1700, the gas temperature was 325° C., and vaporizer temperature was: […]. The sample was adjusted to have a concentration at 0.1 mg/mL, the injection volume of each sample was 1 μL. Mass hunter software was used for protein deconvolution data analysis to calculate the molecular weight of the protein.
# as §1
# SHP2/R362A = SHP2/R362A (Homo sapiens, UniProt Q06124, R362A); experiment: SHP2 mutant inhibition assay (pNPP); type: biochemical
# [4] = test system: H1975 non-small cell lung cancer (NSCLC) cell line; experiment: MTT cell proliferation assay; type: cell-based, human; settings: 20 μM and 40 μM, 2 days
# Procedure: (§2) Human non-small cell lung carcinoma cell line H1975 was cultured at 37° C. and 5% CO2 in RPMI-1640 (Corning) supplemented with 10% fetal bovine serum (HyClone). Human breast cancer cell line MDA-MB-231 was cultured in DMEM supplemented with 10% fetal bovine serum. For cell proliferation assay, 2˜3×10^3 cells were seeded in each well of 96-well plates. After treating cells with compounds for 2 days, cells were incubated with 50 μg/ml MTT (3-(4,5-Dimethylthiazol-2-yl)-2,5-diphenyltetrazolium bromide) for ˜3-4 hours. Then, the culture medium was removed, DMSO was added to dissolve the formazan crystals. Wells containing only media were used for background correction. The optical density was measured spectrophotometrically at 540 nm. For signaling analysis, cells were serum-starved overnight followed by treatment with vehicle or compounds for 3 hours, and then either left un-stimulated or stimulated with 5 μg/ml EGF or 10 nM PMA (Sigma) for indicated time. Cells were lysed and the lysates were electrophoresed on a 10% polyacrylamide gel, and then transferred to a nitrocellulose membrane, and probed with anti-phospho-ERK1/2 and anti-ERK1/2 (Cell Signaling) antibodies followed by incubation with horseradish peroxidase-conjugated secondary antibodies. The blots were developed by the enhanced chemiluminescence technique using the SuperSignal West Pico Chemiluminescent substrate (Pierce).
# [5] = test system: MDA-MB-231 breast cancer cell line; experiment: MTT cell proliferation assay; type: cell-based, human; settings: 20 μM and 40 μM, 2 days
# Procedure: as §2
# [6] = test system: EGF-mediated ERK1/2 phosphorylation in H1975 cells; experiment: EGF-induced ERK1/2 phosphorylation immunoblot; type: cell-based, human; settings: compound 7 at 40 μM
# Procedure: as §2
# [7] = Pharmacokinetics and bioavailability in guinea pigs; type: in vivo, guinea pig; settings: oral
# Procedure: All drugs were suspended in 1% DMSO, 0.5% DEA, 48.5% PEG 400, and 50% water. Blood was collected for analysis of these drugs in plasma pre-dose and at 1, 4, 8, 24, and 48 h post-dose. Plasma was separated and stored at −70° C. until analysis. Plasma drug concentrations were determined by liquid chromatography-mass spectrometry and liquid chromatography-tandem mass spectrometry over the concentration range of 0.005-1 mg/L with dilution to 10 mg/L. Pharmacokinetic variables were calculated from individual drug concentration-time data using non-compartmental methods as implemented in WinNonlin version 5.0 (Pharsight, Mountain View, Calif.) as described earlier.
# M. tuberculosis H37Rv = experiment: Microplate Alamar Blue assay (MABA) MIC; type: cell-based, Mycobacterium tuberculosis
# M. tuberculosis Erdman = experiment: Microplate Alamar Blue assay (MABA) MIC; type: cell-based; settings: Mycobacterium tuberculosis, minimum inhibitory concentration, read-out: In vitro anti-Mtb activity MABA-MIC Erdman
# [8] = test system: M. tuberculosis (Erdman and H37Rv) in J774 macrophages; experiment: Macrophage assay: growth of M. tuberculosis in IFN-γ activated J774 macrophages; type: cell-based, Mycobacterium tuberculosis
# [9] = Example 9: SHP2 catalytic domain 20 nM, pNPP 3 mM, pH 7.0, 25° C., read-out: IC50 SHP2
# Sequence of SHP2/R362A (Q06124 224-528 R362A): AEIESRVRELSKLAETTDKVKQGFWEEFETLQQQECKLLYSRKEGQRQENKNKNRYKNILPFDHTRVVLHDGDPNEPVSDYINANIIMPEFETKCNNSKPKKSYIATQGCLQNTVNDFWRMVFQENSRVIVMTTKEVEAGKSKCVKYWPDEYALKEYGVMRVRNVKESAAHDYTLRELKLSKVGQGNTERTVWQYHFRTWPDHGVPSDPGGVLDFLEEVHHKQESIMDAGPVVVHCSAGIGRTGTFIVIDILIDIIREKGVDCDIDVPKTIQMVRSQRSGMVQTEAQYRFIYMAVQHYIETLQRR
# Sequence of PTPμ (P28827 21-1452): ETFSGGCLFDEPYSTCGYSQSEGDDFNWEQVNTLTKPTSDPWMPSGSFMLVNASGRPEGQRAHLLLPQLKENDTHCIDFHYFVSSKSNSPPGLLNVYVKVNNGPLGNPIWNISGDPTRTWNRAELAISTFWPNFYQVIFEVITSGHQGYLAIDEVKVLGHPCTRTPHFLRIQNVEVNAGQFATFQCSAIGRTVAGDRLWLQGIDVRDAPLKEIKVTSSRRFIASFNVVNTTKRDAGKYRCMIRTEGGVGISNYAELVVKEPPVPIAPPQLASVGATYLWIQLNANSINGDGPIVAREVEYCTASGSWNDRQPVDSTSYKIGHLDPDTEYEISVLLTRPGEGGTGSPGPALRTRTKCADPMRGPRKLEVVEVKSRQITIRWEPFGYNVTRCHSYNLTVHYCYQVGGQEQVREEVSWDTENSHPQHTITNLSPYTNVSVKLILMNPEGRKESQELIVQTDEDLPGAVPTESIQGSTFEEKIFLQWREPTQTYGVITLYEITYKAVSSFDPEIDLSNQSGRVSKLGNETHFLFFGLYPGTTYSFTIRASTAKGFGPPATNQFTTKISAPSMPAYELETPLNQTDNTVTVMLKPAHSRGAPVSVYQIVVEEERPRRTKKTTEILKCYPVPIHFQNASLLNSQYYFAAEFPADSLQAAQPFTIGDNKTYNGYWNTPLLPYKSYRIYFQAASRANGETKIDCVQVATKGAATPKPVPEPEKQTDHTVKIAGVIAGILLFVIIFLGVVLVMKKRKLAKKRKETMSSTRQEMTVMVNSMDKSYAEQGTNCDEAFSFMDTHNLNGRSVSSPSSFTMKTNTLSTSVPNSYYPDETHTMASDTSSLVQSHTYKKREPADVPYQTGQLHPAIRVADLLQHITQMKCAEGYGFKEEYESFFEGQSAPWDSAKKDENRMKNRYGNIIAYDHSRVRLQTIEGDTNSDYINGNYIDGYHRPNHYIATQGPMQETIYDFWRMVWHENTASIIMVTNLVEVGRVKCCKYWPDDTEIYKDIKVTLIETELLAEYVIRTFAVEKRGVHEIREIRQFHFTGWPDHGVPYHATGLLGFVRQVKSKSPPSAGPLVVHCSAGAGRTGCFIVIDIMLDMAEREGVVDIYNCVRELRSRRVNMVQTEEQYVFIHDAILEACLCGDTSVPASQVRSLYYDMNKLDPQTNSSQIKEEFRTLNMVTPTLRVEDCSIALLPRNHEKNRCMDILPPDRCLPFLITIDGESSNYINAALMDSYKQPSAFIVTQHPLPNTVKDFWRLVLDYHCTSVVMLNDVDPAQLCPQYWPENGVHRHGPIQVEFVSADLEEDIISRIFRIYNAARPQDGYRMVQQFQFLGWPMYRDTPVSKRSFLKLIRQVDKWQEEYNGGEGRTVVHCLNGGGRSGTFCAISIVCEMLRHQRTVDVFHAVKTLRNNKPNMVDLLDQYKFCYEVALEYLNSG
# Sequence of SHP2/E508A (Q06124 224-528 E508A): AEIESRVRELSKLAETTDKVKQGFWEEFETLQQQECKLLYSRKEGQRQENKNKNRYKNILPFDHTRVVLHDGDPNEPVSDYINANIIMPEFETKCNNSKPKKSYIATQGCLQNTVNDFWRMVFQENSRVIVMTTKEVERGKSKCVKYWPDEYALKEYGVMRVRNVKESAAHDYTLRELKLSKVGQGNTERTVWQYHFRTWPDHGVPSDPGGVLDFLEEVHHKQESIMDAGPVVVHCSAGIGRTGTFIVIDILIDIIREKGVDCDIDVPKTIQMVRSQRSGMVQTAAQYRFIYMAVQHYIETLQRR
smiles,measurement,setting,value
"NC(=O)c1cc[n+](CC2=C(C(=O)O)N3C(=O)[C@@H](NC(=O)[C@@H](c4ccccc4)S(=O)(=O)[O-])[C@H]3SC2)cc1 [Cefsulodin, reference compound]",IC50,PTPμ,> 200 µM
same,IC50,PP5,> 200 µM
same,IC50,SHP2/E508A,19 ± 1 µM
same,IC50,SHP2 [1]; [9],16.8 µM and 16.7 µM
same,Ki,"SHP2 [1]; Lineweaver-Burk, pNPP as substrate",6.6 ± 0.2 µM
same,Fold selectivity for SHP2 against PTPs examined,SHP2 [1]; cefsulodin: with the exception of SHP1,greater than 10 fold
same,IC50,"SHP2 [1]; incubated with SHP2 for 30 minutes prior to addition of pNPP, read-out: IC50 SHP2, inhibitor pre-mixed with SHP2",16.8 ± 1.8 µM
same,IC50,"SHP2 [1]; incubated with pNPP for 30 minutes prior to addition of SHP2, read-out: IC50 SHP2, inhibitor pre-mixed with pNPP",17.5 ± 2 µM
same,Mode of SHP2 inhibition,SHP2 [1],competitive inhibitor
same,Mode of SHP2 inhibition,SHP2 [1]; listed as cefsulodin,competitive and reversible SHP2 inhibitor
same,Degradation in pH 5.8 MES buffer,"[2]; 20 mM MES, 250 mM NaCl, 1 mM EDTA, LC-MS",negligible
same,Degradation in pH 7.4 CBTP buffer,"[2]; 33 mM Citric acid, 67 mM BIS-TRIS Propane, LC-MS",obvious
same,Degradation in CBTP buffer at pH 9.1,[2]; LC-MS,further accelerated
same,Time stable in MES buffer pH=5.8,[2]; LC-MS,at least 2 days
same,Time until compound was gone in CBTP buffer pH=9.1,[2]; LC-MS,≤ 12 h
same,Time to complete degradation under crystallization condition,"[2]; final pH=7.1, 20° C., with SHP2 and DTT",≤ 2 days
same,Covalent adduct formation with SHP2 (QTOF ESI-MS),SHP2 [3],no covalent adduct formation
same,IC50,"SHP2/R362A; pNPP, pH 7.0",46.5 ± 4.9 µM
same,Fold increase of IC50 by replacement of R362 with alanine,SHP2/R362A; vs wild-type SHP2,3 fold
"O=C(Nc1ccc(NC(=O)C(c2ccccc2)S(=O)(=O)O)cc1)C(=O)Nc1ccc(-c2ccccc2)cc1 (stereo not drawn) [Compound 5, 2-((4-(2-([1,1′-biphenyl]-4-ylamino)-2-oxoacetamido)phenyl)amino)-2-oxo-1-phenylethanesulfonic acid]",IC50,PTPμ,> 10 µM
same,H1975 cell proliferation (MTT),[4],reduce H1975 cell proliferation in a dose dependent manner; also recorded: significantly (**p<0.01) reduced cell proliferation
same,MDA-MB-231 cell survival/growth (MTT),[5],significantly (**p<0.01) reduced cell survival
same,IC50,PP5,> 10 µM
same,IC50,SHP2 [1]; [9],1.36 ± 0.04 µM
"O=C(Nc1ccccc1)C(=O)Nc1ccc(NC(=O)C(c2ccccc2)S(=O)(=O)O)cc1 (stereo not drawn) [Compound 7, 2-oxo-2-((4-(2-oxo-2-(phenylamino)acetamido)phenyl)amino)-1-phenylethanesulfonic acid]",H1975 cell proliferation (MTT),[4],ineffective; also recorded: did not
same,MDA-MB-231 cell survival/growth (MTT),[5],did not
same,Inhibition of SHP2 at 50 μM,SHP2 [1]; 50 μM,no inhibition
same,IC50,SHP2 [1]; [9],> 50 µM
same,Effect on EGF-mediated ERK1/2 phosphorylation,[6],no appreciable effect; also recorded: failed to block EGF-mediated ERK1/2 phosphorylation
O=C(O)c1cc2c(C#Cc3cccc(C(F)(F)F)c3)c(-c3ccccc3)oc2cc1O [Compound L01Z08],Oral bioavailability and half-life in guinea pigs,[7],good oral bioavailability and half-life
same,Activity in standard MIC assay,M. tuberculosis H37Rv,inactive
same,MIC,"M. tuberculosis H37Rv; Mycobacterium tuberculosis, H37RV, minimum inhibitory concentration, read-out: In vitro anti-Mtb activity MABA-MIC H37Rv",> 10 µM
same,MIC,M. tuberculosis Erdman,> 10 µM
same,Anti-Mtb activity in infected macrophages,"[8]; J774A.1 macrophages, low micromolar concentrations",potent anti-Mtb activity
same,IC90,"[8]; Mycobacterium tuberculosis, J774, IC90 in macrophages activated with interferon-γ, read-out: In vitro anti-Mtb activity, Mtb-infected macrophages (IC90)",< 5 µM
C=CS(=O)(=O)c1ccccc1 [phenyl vinyl sulfone],Covalent adduct formation with SHP2 (QTOF ESI-MS),SHP2 [3],formed a covalent adduct
